Assay results as given in paper PMC5749684, “Tetrahydrocarbazoles are a novel class of potent P-type ATPase inhibitors with antifungal activity” (PLoS ONE, 2018).

How the values were obtained:
[1] = test system: yeasts Saccharomyces cerevisiae, Candida albicans, Candida krusei and Candida glabrata; assay: Fungal growth inhibition; format: cell-based; conditions: species not given; for MIC: antifungal activity
Excerpt: Fungal isolates were purchased from American Type Culture Collection, except for C. glabrata strain Cg003, which was kindly provided by Julius Subik, Comenius University in Bratislava, Slovak Republic. Cg003 is a clinical isolate, characterized to be resistant to fluconazole and itraconazole due to overexpression of the multidrug resistance efflux pumps Cdr1p and Cdr2p. Saccharomyces cerevisiae (ATCC 9763), Candida albicans (ATCC 90028), Candida albicans (SC5314), Candida glabrata (ATCC 90030), Candida glabrata (Cg003) and Candida krusei (ATCC 6258) were grown in Sabouraud broth (40 g/L D-glucose, 10 g/L peptone, pH 5.6) or YPD (10 g/L yeast extract, 20 g/L Bacto-peptone, 20 g/L glucose) medium to mid log phase, aliquoted into 20% (v/v) glycerol and cryopreserved as stocks at -80°C. For each growth assay, cells from these stocks were diluted in sterile water to OD600 = 0.025, which corresponds to a final starting inoculum of 0.5–2.5 x 10^5 CFU/mL. Growth assays were carried out by pipetting 3 μL compound dissolved in DMSO, 100 μL cell suspension and 97 μL 2 x RPMI media (20.8 g/L RPMI-1640 (Sigma-Aldrich catalog number R6504) 330 mM MOPS, 36 g/L glucose) into a microtiter plate and incubating for 24 h at 34°C, followed by OD measurement at 490 nm. The minimum inhibitory concentration (MIC) was defined as 50% growth inhibition of the microorganism as this measurement best represented the antifungal activity of the compounds. Standard errors were typically below 5%.

S. cerevisiae cells = assay: Membrane potential study (DiBAC4(3)); format: cell-based, Saccharomyces cerevisiae; conditions: 10 μM, 30 minutes exposure, compared to DMSO
Method: S. cerevisiae cells were grown to mid-log phase, pelleted at 2,000 x g for 2 minutes and washed twice in buffer A (100 mM MOPS and 1 mM KCl adjusted with Trizma base to pH 7.0). Cells were then resuspended in buffer A to an OD600 of 0.2. For each well 50 μL of buffer A with 3.3 μg/mL propidium iodide (PI) (Thermo Fisher Scientific, catalog number P1304MP) and 1 μg/mL DiBAC4(3) (Sigma-Aldrich, catalog number D8189)) was mixed with 50 μL S. cerevisiae cell suspension and transferred to a 96 well plate containing 1 μL of inhibitor (in DMSO). A lysis control was performed with Reagent Y100 (ChemoMetec). Five thousand cells were measured per experiment with an exposure time of 1000 ms using a NucleoCounter NC-3000 (ChemoMetec). Dark field was used as the masking channel to select the yeast cells, and the DiBAC4(3) ([…]) and PI (ex 630 nm, em 740/60 nm) channels were used to measure the membrane potential and membrane integrity, respectively. Only cells with a pixel size of 10–40 were included in the analysis, to avoid analysis of non-cell artifacts.

[2] = test system: C. albicans (SC5314) cells; assay: Time-kill assay; format: cell-based, Candida albicans; conditions: for Reduction in CFU after 3 h exposure: 20 μM, compared to DMSO treated controls; for Fungicidal or fungistatic activity in time-kill (in words): AMB 0.54 μM, VRC 2.8 μM, 6 and 8 20 μM
Method: C. albicans (SC5314) cells (1 x 10^5 CFU/mL) were incubated in 10 mL RPMI-1640 media at 30°C with gentle agitation (150 rpm) in the presence of amphotericin B (0.5 μM), voriconazole (2.8 μM) or tetrahydrocarbazole compound (20 μM). At the indicated time points (0, 3, 6, and 24 h), a 100 μL aliquot was removed, serially diluted (10 fold) in saline (0.9% NaCl), and 30 μL aliquots were spread on YPD agar. CFU were counted after incubation at 30°C for 48 h. C. albicans cells treated with DMSO (1%, v/v) served as a control. 50 CFU/mL was selected as the lower limit of quantitation.

C. albicans cells = assay: Post-antifungal effect determination; format: cell-based, Candida albicans; conditions: 1 h exposure of C. albicans; AMB 0.54 μM, VRC 2.8 μM, 6 and 8 20 μM
Method: The post-antifungal effect (PAFE) of antifungal drugs on C. albicans was determined as described by others, with modifications. Briefly, 2 × 10^6 CFU/mL C. albicans cells were incubated in 1 mL RPMI-1640 media for 1 h at 30°C with gentle agitation in the presence of amphotericin B (0.54 μM), voriconazole (2.8 μM) or tetrahydrocarbazole compound (20 μM). Cells were subsequently washed in RPMI media 3 times by centrifugation (3 minutes, 5,000 x g) and finally re-suspended in 1 mL fresh RPMI medium and incubated at 30°C for 24 h. At various time intervals, a 100 μL aliquot was removed, serially diluted (10-fold) in saline (0.9% NaCl), and 30 μL aliquots were spread on YPD agar. The agar plates were incubated at 30°C for 48 h and the number of CFU/mL of culture was determined. C. albicans cells treated with DMSO (1%, v/v) served as a control. The number of CFU/mL obtained at specified time intervals was plotted against time (h) following compound removal. An increase in the CFU/mL of culture signifies growth and multiplication of yeast cells. The duration required for the antifungal drug-treated cells to recover from the inhibitory effect of the drug as indicated by an increase in CFU/mL of culture is defined as the PAFE.

SMILES: NC1CCCc2c1[nH]c1cc(OC(F)(F)F)ccc21 (stereo not shown) [Compound 4]
- Antifungal activity (in words) [1]: weak antifungal activity
- DiBAC4(3) fluorescence signal, membrane depolarization (in words) (S. cerevisiae cells): No significant differences

SMILES: CN1CCC(NC2CCCc3c2[nH]c2cc(OC(F)(F)F)ccc32)CC1 (stereo not shown) [Compound 5]
- Antifungal activity (in words) [1]: weak antifungal activity
- DiBAC4(3) fluorescence signal, membrane depolarization (in words) (S. cerevisiae cells): No significant differences

SMILES: FC(F)(F)Oc1ccc2c3c([nH]c2c1)C(NCc1ccc(Cl)cc1)CCC3 (stereo not shown) [Compound 6]
- Reduction in CFU after 3 h exposure [2]: > 99%
- Fungicidal or fungistatic activity in time-kill (in words) [2]: fungistatic activity after 24 h of incubation
- Post-antifungal effect (PAFE) (C. albicans cells): 5 h

SMILES: FC(F)(F)Oc1ccc2c3c([nH]c2c1)C(NCCOc1ccc(Cl)cc1)CCC3 (stereo not shown) [Compound 8]
- Reduction in CFU after 3 h exposure [2]: > 99%
- Fungicidal or fungistatic activity in time-kill (in words) [2]: fungistatic activity after 24 h of incubation
- Post-antifungal effect (PAFE) (C. albicans cells): 5 h

SMILES: Clc1ccc2[nH]c3c(c2c1)CCCC3NCc1ccc(-c2ccccc2)cc1 (stereo not shown) [Compound 10]
- DiBAC4(3) fluorescence signal, membrane depolarization (in words) (S. cerevisiae cells): slight increase

SMILES: Cn1c2c(c3cc(Cl)ccc31)CCCC2NCc1ccc(-c2ccccc2)cc1 (stereo not shown) [Compound 11]
- MIC [1]: > 20 µM

SMILES: CN(Cc1ccc(-c2ccccc2)cc1)C1CCCc2c1[nH]c1ccc(Cl)cc21 (stereo not shown) [Compound 12]
- MIC [1]: > 20 µM
